Laboratory results from the supplement of paper PMC11061612.

Columns and labels:
PA-1 (Ovarian Carcinoma) = assay: combination Emax (second highest fraction inhibited in the dose matrix, 72 h); higher = more inhibition; extreme values may be limits of the assay
In short: (§1)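 After 24 hours at 37°C and 5% CO2 in 1536-well plates, cells in DMEM/F12 or RPMI plus 10% FBS received two-drug dose matrices for 72 hours. Viability came from CellTiter-Glo 2.0 luminescence and was scaled as inhibition, anchored at 0 by vehicle wells and at 1 by blank wells. Combination Emax is taken as the second-highest inhibition in the matrix, and Bliss excess as the observed combination effect less EA + EB − EA·EB, with EA and EB the single-agent effects.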

NY (Osteosarcoma) = assay: as above
In short: as §1

[1] = test system: SISO (Cervical Carcinoma); assay: as above
In short: as §1

[2] = test system: NCI-H64 (Small Cell Lung Carcinoma); assay: as above
In short: as §1

[3] = test system: NCI-H1581 (Non-Small Cell Lung Carcinoma); assay: as above
In short: as §1

[4] = test system: KARPAS-422 (B-Cell Non-Hodgkin's Lymphoma); assay: as above
In short: as §1

GI-ME-N (Neuroblastoma) = assay: as above
In short: as §1

[5] = test system: JSC-1 (B-Cell Non-Hodgkin's Lymphoma); assay: as above
In short: as §1

[6] = test system: CAPAN-2 (Pancreatic Carcinoma); assay: as above
In short: as §1

[7] = test system: COLO-824 (Breast Carcinoma); assay: as above
In short: as §1

[8] = test system: NCI-H1650 (Lung Adenocarcinoma); assay: as above
In short: as §1

8-MG-BA (Glioblastoma) [9] = assay: as above
In short: as §1

[10] = test system: TT2609-C02 (Thyroid Gland Carcinoma); assay: as above
In short: as §1

ARH-77 (Non-Cancerous) = assay: as above
In short: as §1

CAS-1 (Glioblastoma) = assay: as above
In short: as §1

[11] = test system: BICR22 (Oral Cavity Carcinoma); assay: as above
In short: as §1

[12] = test system: NCI-H2066 (Squamous Cell Lung Carcinoma); assay: as above
In short: as §1

[13] = test system: CAL-29 (Bladder Carcinoma); assay: Bliss excess, mean over the matrix (fraction); higher = more synergy
In short: as §1

8-MG-BA (Glioblastoma) [14] = assay: as above
In short: as §1

[15] = test system: NCI-H2066 (Squamous Cell Lung Carcinoma); assay: as above
In short: as §1
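Throughout, for Bliss excess, mean over the matrix: after 72 h of two-drug dosing.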

| SMILES | combination Emax (PA-1 (Ovarian Carcinoma)) | combination Emax (NY (Osteosarcoma)) | combination Emax [1] | combination Emax [2] | combination Emax [3] | combination Emax [4] | combination Emax (GI-ME-N (Neuroblastoma)) | combination Emax [5] | combination Emax [6] | combination Emax [7] | combination Emax [8] | combination Emax (8-MG-BA (Glioblastoma) [9]) | combination Emax [10] | combination Emax (ARH-77 (Non-Cancerous)) | combination Emax (CAS-1 (Glioblastoma)) | combination Emax [11] | combination Emax [12] | Bliss excess [13] | Bliss excess (8-MG-BA (Glioblastoma) [14]) | Bliss excess [15] |
| --- | --- | --- | --- | --- | --- | --- | --- | --- | --- | --- | --- | --- | --- | --- | --- | --- | --- | --- | --- | --- |
| CC1(C)CCC(CN2CCN(c3ccc(C(=O)NS(=O)(=O)c4ccc(NCC5CCOCC5)c([N+](=O)[O-])c4)c(Oc4cnc5[nH]ccc5c4)c3)CC2)=C(c2ccc(Cl)cc2)C1 [Venetoclax] + COc1cc(Nc2ncc3c(n2)-c2ccc(Cl)cc2C(c2c(F)cccc2OC)=NC3)ccc1C(=O)O [Alisertib] (first compound max 1 µM, 7x7, partner max 10 µM) | 0.927 | 0.654 | 0.543 | 0.692 | 0.698 | 0.858 | 0.327 | 0.377 | 0.244 | 1 | 0.493 | 0.447 | 0.426 | 0.932 | 0.744 | 0.501 | 0.285 | -0.0554 | 0.0038 | 0.0077 |
| CN(CCO)CC[C@H](CSc1ccccc1)Nc1ccc(S(=O)(=O)NC(=O)c2ccc(N3CCC([C@@H](O)c4ccccc4-c4ccc(Cl)cc4)CC3)cc2)cc1S(=O)(=O)C(F)(F)F [AZD4320] + C1CN(CCC1(C(=O)N[C@@H](CCO)C2=CC=C(C=C2)Cl)N)C3=NC=NC4=C3C=CN4 [Capivasertib] (first compound max 1 µM, 7x7, partner max 3 µM) | 0.743 | 0.0978 | 0.0618 | 0.95 | 0.0979 | 0.989 | 0.153 | 0.124 | 0.576 | 1 | 0.143 | 0.291 | 0.0697 | 0.841 | 0.327 | 0.684 | 0.923 | -0.0397 | -0.0071 | 0.0311 |
| Cc1c2c(nn1C)CSCc1cc(n(C)n1)CSc1cc(c3ccccc3c1)OCCCc1c(C(=O)O)n(C)c3c-2c(Cl)ccc13 [AZD5991] + C=CCn1c(=O)c2cnc(Nc3ccc(N4CCN(C)CC4)cc3)nc2n1-c1cccc(C(C)(C)O)n1 [AZD1775] (first compound max 1 µM, partner max 1 µM) | 0.937 | 0.747 | 0.663 | 0.933 | 1 | 0.965 | 0.532 | 1 | 0.428 | 0.667 | 0.548 | 0.906 | 0.617 | 0.995 | 0.852 | 0.717 | 0.256 | 0.0878 | -0.0123 | -0.0231 |
| COc1nnc2ccc(N3CCC(c4ccc(OCCN5CCN(C)C(=O)[C@H]5C)cc4)CC3)nn12 [AZD5153] + Cc1c2c(nn1C)CSCc1cc(n(C)n1)CSc1cc(c3ccccc3c1)OCCCc1c(C(=O)O)n(C)c3c-2c(Cl)ccc13 [AZD5991] (first compound max 1 µM, 7x7, partner max 1 µM) | 1 | 0.688 | 0.508 | 0.399 | 0.983 | 0.991 | 0.377 | 1 | 0.296 | 0.724 | 0.441 | 0.94 | 0.454 | 0.831 | 0.64 | 0.901 | 0.35 | -0.0162 | -0.0367 | -0.0569 |
| COc1nnc2ccc(N3CCC(c4ccc(OCCN5CCN(C)C(=O)[C@H]5C)cc4)CC3)nn12 [AZD5153] + CC1(C)CCC(CN2CCN(c3ccc(C(=O)NS(=O)(=O)c4ccc(NCC5CCOCC5)c([N+](=O)[O-])c4)c(Oc4cnc5[nH]ccc5c4)c3)CC2)=C(c2ccc(Cl)cc2)C1 [Venetoclax] (first compound max 1 µM, 7x7, partner max 1 µM) | 0.862 | 0.542 | 0.33 | 0.226 | 0.469 | 0.948 | 0.285 | 0.769 | 0.299 | 0.881 | 0.394 | 0.707 | 0.376 | 0.861 | 0.622 | 0.235 | 0.338 | -0.103 | -0.0116 | -0.0919 |
| CN(CCO)CC[C@H](CSc1ccccc1)Nc1ccc(S(=O)(=O)NC(=O)c2ccc(N3CCC([C@@H](O)c4ccccc4-c4ccc(Cl)cc4)CC3)cc2)cc1S(=O)(=O)C(F)(F)F [AZD4320] + C=CCn1c(=O)c2cnc(Nc3ccc(N4CCN(C)CC4)cc3)nc2n1-c1cccc(C(C)(C)O)n1 [AZD1775] (first compound max 1 µM, partner max 1 µM) | 0.967 | 0.793 | 0.549 | 1 | 0.475 | 0.978 | 0.334 | 0.904 | 0.688 | 1 | 0.403 | 0.785 | 0.722 | 1 | 0.713 | 0.882 | 0.646 | 0.0124 | -0.0417 | -0.0534 |
| NC1(C(=O)N[C@@H](CCO)c2ccc(Cl)cc2)CCN(c2ncnc3[nH]ccc23)CC1 [Capivasertib] + COc1nnc2ccc(N3CCC(c4ccc(OCCN5CCN(C)C(=O)[C@H]5C)cc4)CC3)nn12 [AZD5153] (first compound max 10 µM, 7x7, partner max 1 µM) | 0.998 | 0.346 | 0.421 | 0.548 | 0.462 | 0.68 | 0.343 | 0.793 | 0.33 | 0.776 | 0.442 | 0.797 | 0.461 | 0.885 | 0.735 | 0.631 | 0.77 | 0.0937 | -0.0338 | 0.0135 |
| COc1nnc2ccc(N3CCC(c4ccc(OCCN5CCN(C)C(=O)[C@H]5C)cc4)CC3)nn12 [AZD5153] + Cn1cnc2c(F)c(Nc3ccc(Br)cc3Cl)c(C(=O)NOCCO)cc21 [Selumetinib] (first compound max 1 µM, 7x7, partner max 10 µM) | 0.91 | 0.52 | 0.452 | 0.237 | 0.599 | 0.68 | 0.349 | 0.805 | 0.452 | 0.694 | 0.441 | 0.796 | 0.652 | 0.839 | 0.599 | 0.564 | 0.345 | 0.0393 | -0.007 | -0.0123 |
| Cc1c2c(nn1C)CSCc1cc(n(C)n1)CSc1cc(c3ccccc3c1)OCCCc1c(C(=O)O)n(C)c3c-2c(Cl)ccc13 [AZD5991] + CCN(CCO)CCCOc1ccc2c(Nc3cc(CC(=O)Nc4cccc(F)c4)[nH]n3)ncnc2c1 [AZD2811] (first compound max 1 µM, 7x7, partner max 1 µM) | 0.932 | 0.48 | 0.808 | 0.788 | 1 | 0.981 | 0.354 | 1 | 0.239 | 0.815 | 0.269 | 0.836 | 0.456 | 0.904 | 0.705 | 0.675 | 0.304 | 0.072 | 0.114 | 0.0154 |
| C[C@@H]1COCCN1c1cc(C2([S@](C)(=N)=O)CC2)nc(-c2ccnc3[nH]ccc23)n1 [AZD6738] + O=C(c1cc(Cc2n[nH]c(=O)c3ccccc23)ccc1F)N1CCN(C(=O)C2CC2)CC1 [Olaparib] (first compound max 10 µM, 7x7, partner max 10 µM) | 0.768 | 0.607 | 0.595 | 0.692 | 0.528 | 0.556 | 0.486 | 0.822 | 0.309 | 0.595 | 0.349 | 0.85 | 0.316 | 0.911 | 0.48 | 0.711 | 0.388 | -0.0405 | 0.0521 | -0.0682 |
| Cn1cnc2c(F)c(Nc3ccc(Br)cc3Cl)c(C(=O)NOCCO)cc21 [Selumetinib] + CCN(CCO)CCCOc1ccc2c(Nc3cc(CC(=O)Nc4cccc(F)c4)[nH]n3)ncnc2c1 [AZD2811] (first compound max 10 µM, 7x7, partner max 1 µM) | 0.654 | 0.247 | 0.338 | 0.516 | 0.487 | 0.263 | 0.213 | 0.682 | 0.407 | 0.825 | 0.213 | 0.286 | 0.622 | 0.369 | 0.277 | 0.538 | 0.286 | 0.0023 | -0.0181 | -0.0322 |
| CC(=O)c1c(C)c2cnc(Nc3ccc(N4CCNCC4)cn3)nc2n(C2CCCC2)c1=O [Palbociclib] + Cc1c2c(nn1C)CSCc1cc(n(C)n1)CSc1cc(c3ccccc3c1)OCCCc1c(C(=O)O)n(C)c3c-2c(Cl)ccc13 [AZD5991] (first compound max 10 µM, 7x7, partner max 1 µM) | 0.872 | 0.534 | 0.127 | 0.213 | 0.951 | 0.966 | 0.332 | 1 | 0.139 | 0.708 | 0.195 | 0.63 | 0.275 | 0.556 | 0.32 | 0.176 | 0.198 | -0.0532 | -0.0424 | -0.0361 |
